ChEMBL document CHEMBL5620374, “Synthesis and bioevaluation of novel stilbene-based derivatives as tubulin/HDAC dual-target inhibitors with potent antitumor activities in vitro and in vivo” (Eur J Med Chem, 2023)

Assays:
K562 [1] = assay: Antiproliferative activity against human K562 cells incubated for 72 hrs by MTT assay; format: functional, cell-based; conditions: K562, 72 h
B16-F10 = assay: Antiproliferative activity against mouse B16-F10 cells incubated for 72 hrs by MTT assay; format: functional, cell-based; conditions: B16-F10, 72 h
[2] = Antiproliferative activity against human HFL1 cells incubated for 72 hrs by MTT assay; format: toxicity, cell-based
MCF7 = assay: cells; conditions: Homo sapiens, MCF7, 72 h
Description: Antiproliferative activity against human MCF7 cells incubated for 72 hrs by MTT assay

MDA-MB-231 = assay: cells; conditions: Homo sapiens, MDA-MB-231, 72 h
Description: Antiproliferative activity against human MDA-MB-231 cells incubated for 72 hrs by MTT assay

A549 = assay: cells; conditions: Homo sapiens, A549, 72 h
Description: Antiproliferative activity against human A549 cells incubated for 72 hrs by MTT assay

A2780 = assay: cells; conditions: Homo sapiens, A2780, 72 h
Description: Antiproliferative activity against human A2780 cells incubated for 72 hrs by MTT assay

K562 [3] = assay: Antiproliferative activity against human K562 cells assessed as cell inhibition rate at 1 uM incubated for 72 hrs by MTT assay relative to control; format: functional
K562 [4] = assay: Antiproliferative activity against human K562 cells assessed as cell inhibition rate at 0.1 uM incubated for 72 hrs by MTT assay relative to control; format: functional
K562 [5] = assay: Antiproliferative activity against human K562 cells assessed as cell inhibition rate at 0.01 uM incubated for 72 hrs by MTT assay relative to control; format: functional

Question: Which IC50 (K562 [1]) does the source give for C=C(c1ccc(OC)c(OCCCCCC(=O)NO)c1)c1cc(C)nc2ccccc12 here?
Answer: 2260 nM

Question: Which IC50 (K562 [1]) does the source give for C=C(c1ccc(OC)c(OCCCCC(=O)NO)c1)c1cc(C)nc2ccccc12 here?
Answer: 1840 nM

Question: Which IC50 (K562 [1]) does the source give for C=C(c1ccc(OC)c(OCC(=O)NO)c1)c1cc(C)nc2ccccc12 here?
Answer: 8 nM

Question: And the IC50 (B16-F10)?
Answer: 28 nM

Question: What about the IC50 at 72 h [2] of the same compound?
Answer: 195 nM

Question: What about the IC50 (MCF7) of the same compound?
Answer: 55 nM

Question: And the IC50 (MDA-MB-231)?
Answer: 32 nM

Question: What about the IC50 (A549) of the same compound?
Answer: 38 nM

Question: What about the IC50 (A2780) of the same compound?
Answer: 16 nM

Question: With C=C(c1ccnc(OC)c1)c1ccc(OC)c(OCC(=O)NO)c1 as the compound, how does the IC50 (K562 [1]) read?
Answer: 55 nM

Question: With C=C(c1ccc(OC)c(C(=O)NO)c1)c1cc(C)nc2ccccc12 as the compound, how does the IC50 (K562 [1]) read?
Answer: 1320 nM

Question: Which results are given for C=C(c1ccc2[nH]ccc2c1)c1cc(C(=O)Nc2ccccc2N)nc2ccccc12?
Answer: inhibition at 1 µM (K562 [3]): 2.75%; inhibition at 0.1 µM (K562 [4]): 2.75%; inhibition at 0.01 µM (K562 [5]): -0.17%

Question: With C=C(c1ccc(OC)c(O)c1)c1cc(COCC(=O)NO)nc2ccccc12 as the compound, how does the inhibition at 1 µM (K562 [3]) read?
Answer: 71.5%

Question: And the inhibition at 0.1 µM (K562 [4])?
Answer: 6.41%

Question: What about the inhibition at 0.01 µM (K562 [5]) of the same compound?
Answer: 0.83%

Question: For C=C(c1ccc(OC)c(OCC(=O)NO)c1)c1ccnc2ccccc12, which IC50 (K562 [1]) is on record?
Answer: 79 nM

Question: With C=C(c1cccc(OC/C=C/C(=O)NO)c1)c1cc(C)nc2ccccc12 as the compound, how does the IC50 (K562 [1]) read?
Answer: 2740 nM

Question: With C=C(c1ccnc(OC)c1)c1ccc(OC)c(OCCCC(=O)NO)c1 as the compound, how does the IC50 (K562 [1]) read?
Answer: 1140 nM

Question: For C=C(c1cccc(OCC(=O)NO)c1)c1cc(C)nc2ccccc12, which IC50 (K562 [1]) is on record?
Answer: 2480 nM

Question: Which inhibition at 1 µM (K562 [3]) does the source give for C=C(c1ccc(OC)cc1)c1cc(C(=O)Nc2ccccc2N)nc2ccccc12 here?
Answer: 1.1%

Question: What about the inhibition at 0.1 µM (K562 [4]) of the same compound?
Answer: 0.24%

Question: And the inhibition at 0.01 µM (K562 [5])?
Answer: -0.16%

Question: With C=C(c1ccnc(C)c1)c1ccc(OC)c(OCCCC(=O)NO)c1 as the compound, how does the IC50 (K562 [1]) read?
Answer: 1490 nM

Question: With C=C(c1ccnc(OC)c1)c1ccc(OC)c(OCCCCCC(=O)NO)c1 as the compound, how does the IC50 (K562 [1]) read?
Answer: 3860 nM

Question: Which IC50 (K562 [1]) does the source give for C=C(c1ccnc(C)c1)c1ccc(OC)c(OCC(=O)NO)c1 here?
Answer: 107 nM

Question: With C=C(c1cccc(OCCCC(=O)NO)c1)c1cc(C)nc2ccccc12 as the compound, how does the IC50 (K562 [1]) read?
Answer: 3000 nM

Question: For C=C(c1cc(C)nc(C)c1)c1ccc(OC)c(OCCCCCC(=O)NO)c1, which IC50 (K562 [1]) is on record?
Answer: 1920 nM

Question: With C=C(c1cc(C)nc(C)c1)c1ccc(OC)c(OCCCC(=O)NO)c1 as the compound, how does the IC50 (K562 [1]) read?
Answer: 516 nM

Question: Which IC50 (K562 [1]) does the source give for C=C(c1ccc(OC)c(OC(C)C(=O)NO)c1)c1ccnc2ccccc12 (stereo not drawn) here?
Answer: 69 nM

Question: Which IC50 (K562 [1]) does the source give for C=C(c1ccc(OC)c(C(=O)Nc2ccccc2N)c1)c1cc(C)nc2ccccc12 here?
Answer: 22200 nM

Question: For C=C(c1ccnc(OC)c1)c1ccc(OC)c(OC(C)C(=O)NO)c1 (stereo not drawn), which IC50 (K562 [1]) is on record?
Answer: 61 nM

Question: With C=C(c1ccc(OC)c(/C=C/C(=O)NO)c1)c1cc(C)nc2ccccc12 as the compound, how does the IC50 (K562 [1]) read?
Answer: 42 nM

Question: And the IC50 (B16-F10)?
Answer: 15 nM

Question: And the IC50 at 72 h [2]?
Answer: 311 nM

Question: What about the IC50 (MCF7) of the same compound?
Answer: 17 nM

Question: And the IC50 (MDA-MB-231)?
Answer: 11 nM

Question: And the IC50 (A549)?
Answer: 9 nM

Question: What about the IC50 (A2780) of the same compound?
Answer: 5 nM

Question: With C=C(c1ccnc(C)c1)c1ccc(OC)c(OCCCCCC(=O)NO)c1 as the compound, how does the IC50 (K562 [1]) read?
Answer: 2880 nM

Question: With C=C(c1ccc2[nH]ccc2c1)c1cc(/C=C/C(=O)NO)nc2ccccc12 as the compound, how does the inhibition at 1 µM (K562 [3]) read?
Answer: 4.78%

Question: And the inhibition at 0.1 µM (K562 [4])?
Answer: 3.73%

Question: And the inhibition at 0.01 µM (K562 [5])?
Answer: 3.16%

Question: For C=C(c1ccc(OC)c(OCCC(=O)NO)c1)c1cc(C)nc2ccccc12, which IC50 (K562 [1]) is on record?
Answer: 61 nM

Question: Which results are given for COc1ccc(/C=C\c2cc(OC)c(OC)c(OC)c2)cc1O [COMBRETASTATIN A4]?
Answer: inhibition at 1 µM (K562 [3]): 95%; inhibition at 0.1 µM (K562 [4]): 88.4%; inhibition at 0.01 µM (K562 [5]): 86.6%; IC50 (K562 [1]): 7 nM; IC50 (B16-F10): 7 nM; IC50 at 72 h [2]: 82 nM; IC50 (MCF7): 71 nM; IC50 (MDA-MB-231): 29 nM; IC50 (A549): 2 nM

Question: Which IC50 (K562 [1]) does the source give for C=C(c1ccnc(C)c1)c1ccc(OC)c(OC(C)C(=O)NO)c1 (stereo not drawn) here?
Answer: 60 nM

Question: With C=C(c1ccc2[nH]ccc2c1)c1cc(COCC(=O)NO)nc2ccccc12 as the compound, how does the inhibition at 1 µM (K562 [3]) read?
Answer: 15%

Question: And the inhibition at 0.1 µM (K562 [4])?
Answer: 6.23%

Question: And the inhibition at 0.01 µM (K562 [5])?
Answer: 2.28%

Question: What does the source list for C=C(c1ccc(OC)cc1)c1cc(/C=C/C(=O)NO)nc2ccccc12?
Answer: inhibition at 1 µM (K562 [3]): 43.5%; inhibition at 0.1 µM (K562 [4]): 6.82%; inhibition at 0.01 µM (K562 [5]): 1.41%

Question: With C=C(c1cc(C)nc(C)c1)c1ccc(OC)c(OCC(=O)NO)c1 as the compound, how does the IC50 (K562 [1]) read?
Answer: 26 nM

Question: And the IC50 (B16-F10)?
Answer: 98 nM

Question: And the IC50 at 72 h [2]?
Answer: 264 nM

Question: And the IC50 (MCF7)?
Answer: 52 nM

Question: What about the IC50 (MDA-MB-231) of the same compound?
Answer: 111 nM

Question: And the IC50 (A549)?
Answer: 69 nM

Question: What about the IC50 (A2780) of the same compound?
Answer: 36 nM

Question: Which results are given for C=C(c1ccc(OC)cc1)c1cc(COCC(=O)NO)nc2ccccc12?
Answer: inhibition at 1 µM (K562 [3]): 40%; inhibition at 0.1 µM (K562 [4]): 3%; inhibition at 0.01 µM (K562 [5]): 2.6%

Question: Which IC50 (K562 [1]) does the source give for C=C(c1cc(C)nc(C)c1)c1ccc(OC)c(OC(C)C(=O)NO)c1 (stereo not drawn) here?
Answer: 19 nM

Question: And the IC50 (B16-F10)?
Answer: 72 nM

Question: And the IC50 at 72 h [2]?
Answer: 213 nM

Question: What about the IC50 (MCF7) of the same compound?
Answer: 19 nM

Question: And the IC50 (MDA-MB-231)?
Answer: 99 nM

Question: And the IC50 (A549)?
Answer: 80 nM

Question: And the IC50 (A2780)?
Answer: 23 nM

Question: What does the source list for C=C(c1ccc(OC)c(OC(C)(C)C(=O)NO)c1)c1cc(C)nc2ccccc12?
Answer: IC50 (K562 [1]): 5 nM; IC50 (B16-F10): 4 nM; IC50 at 72 h [2]: 103 nM; IC50 (MCF7): 44 nM; IC50 (MDA-MB-231): 31 nM; IC50 (A549): 9 nM; IC50 (A2780): 8 nM

Question: For C=C(c1ccc(OC)c(OC(F)(F)C(=O)NO)c1)c1cc(C)nc2ccccc12, which IC50 (K562 [1]) is on record?
Answer: 204 nM

Question: With C=C(c1cccc(OCCCCCC(=O)NO)c1)c1cc(C)nc2ccccc12 as the compound, how does the IC50 (K562 [1]) read?
Answer: 9270 nM

Question: Which IC50 (K562 [1]) does the source give for C=C(c1ccc(OC)c(OCCCC(=O)NO)c1)c1cc(C)nc2ccccc12 here?
Answer: 173 nM

Question: Which results are given for C=C(c1ccc(OC)c(O)c1)c1cc(C(=O)Nc2ccccc2N)nc2ccccc12?
Answer: inhibition at 1 µM (K562 [3]): 4.26%; inhibition at 0.1 µM (K562 [4]): 3.71%; inhibition at 0.01 µM (K562 [5]): 0.16%

Question: For C=C(c1cccc(OC(C)C(=O)NO)c1)c1cc(C)nc2ccccc12 (stereo not drawn), which IC50 (K562 [1]) is on record?
Answer: 2370 nM

Question: For C=C(c1ccc(OC)c(OCCCC(=O)NO)c1)c1ccnc2ccccc12, which IC50 (K562 [1]) is on record?
Answer: 1460 nM

Question: With C=C(c1ccc(OC)c(O)c1)c1cc(/C=C/C(=O)NO)nc2ccccc12 as the compound, how does the inhibition at 1 µM (K562 [3]) read?
Answer: 87.3%

Question: And the inhibition at 0.1 µM (K562 [4])?
Answer: 12.9%

Question: What about the inhibition at 0.01 µM (K562 [5]) of the same compound?
Answer: -0.17%

Question: Which IC50 (K562 [1]) does the source give for C=C(c1ccc(OC)c(OCCCCCC(=O)NO)c1)c1ccnc2ccccc12 here?
Answer: 3340 nM

Question: For C=C(c1cccc(OC(C)(C)C(=O)NO)c1)c1cc(C)nc2ccccc12, which IC50 (K562 [1]) is on record?
Answer: 6860 nM
